1 molecule from patent publication US20190314312A1, “COMBINATION THERAPY TO INCREASE ENDOGENOUS NITRIC OXIDE (NO) SYNTHESIS” (Yeda Research and Development Co. Ltd., priority 2016, published 2019) can be followed below.

Holding throughout (type): in vivo, mouse
Assay [1] deals with CD64+, CD11c+ macrophages. The experiment in a line: FACS analysis of colon CD64+, CD11c+ macrophages after colitis induction. Particulars: fisetin vs control, FIGS. 14D-F. On the procedure:
Colon segment was flushed with cold PBS, longitudinally cut open and rinsed to remove residual luminal contents. Tissue was cut into 3- to 5-mm pieces and incubated in HBSS medium containing EDTA 0.5 M and Hepes 10 mM at 37° C. for 20 minutes, shaken at 180 rpm, to separate epithelial fraction. Supernatant was centrifuged at 4° C. at 500 g for 10 minutes. Recovered tissue was digested in HBSS medium with 2% fetal bovine serum (FBS), 0.05% collagenase II and 0.05% DNase I (Sigma) for 40 minutes. at 37° C., shaken at 180 rpm. LP cells were filtered through 65 μm mesh and centrifuged at 4° C. at 500 g for 10 minutes. The present inventors prepared single cell suspensions from mouse colon by enzymatic digestion and analyzed by polychromatic flow cytometry. Samples were stained with conjugated antibodies or matching isotype controls according to manufacturer's instructions. Data were acquired on an LSRII (BD Biosciences) or FACSCalibur instrument (Becton-Dickinson) with CellQuest software, with a MacsQuant instrument (Miltenyi, Bergisch Gladbach, Germany), and analyzed using BD FACSDiva 6 or FlowJo software (version 7.6.5, or version vX.0.7 Tree Star Inc) or MacsQuant. Colon cells were stained for 30 min at 4° C. in flow cytometry buffer (PBS, 10% FCS and 0.02% azide). For antigens that require intracellular staining (As1, iNOS and S-nitrosocystein), cell surface staining was followed by cell fixation and permeabilization with the Cytofix/Cytoperm kit (BD Biosciences) according to the manufacturer's instructions. […] After staining for cell surface antigens, intracellular NO was detected by incubation of cells for 15 min at 37° C. with 10 μM DAF-FM diacetate followed by extensive washing, according to the manufacturer's instructions (Molecular Probes). […] As1 was detected using anti-As1-ALEXA FLUOR® 488 (BD Biosciences), iNOS using anti-iNOS followed by anti-rat 488 (Jackson ImmunoResearch), and nitrosylation using anti-S-nitrosocystein (from abcam) followed by anti-mouse 488 (Jackson ImmunoResearch).

The test system of assay [2] is C57BL/6J.OlaaHsd mice. The experiment in a line: DSS-induced colitis, treatment with arginine, citrulline, NaNO2, fisetin or citrulline plus fisetin. On the procedure: Colitis was induced in Vav1^Cre:As1^f/f mice and CD11c^Cre:As1^f/f with 1.5% DSS and with 0.8% DSS in the Villin^Cre:As1^f/f (wt/vol), (Dextran Sodium Sulfate, MP Biomedicals; molecular weight 36,000-50,000 Da). The powder was dissolved in the drinking water for 6 days, followed by 5 days of supplementing regular water^20. Each group consisted of eight to ten, 8-10 weeks old, male mice. Experiments were repeated at least three times. “f/f”—flox/flox.
Colonoscopy was performed on days 7 and 11 of the experiment to monitor for severity of colitis. For the procedure, a high resolution mouse video endoscopic system was used, which consists of a miniature endoscope (scope 1.9 mm outer diameter), a xenon light source, a triple chip camera, and an air pump to achieve regulated inflation of the mouse bowel (Karl Storz, Tuttlingen, Germany). Mice were anesthetized by the administration of 4-5% of isoflurane in 100% oxygen at a rate of 0.2-0.5 L/min or by the administration of 100 mg/kg Ketamine/10 mg/kg Xylazine mixture IP, after which, the endoscope was introduced via the anus and the colon was carefully insufflated with an air pump before analysis of the colonic mucosa. The endoscopic procedure was viewed on a color monitor and digitally recorded on tape. Colitis was scored according to the Murine endoscopic index of colitis severity (MEICS), considering differences in the thickness of the bowel wall, changes in blood vessel integrity, mucosal surface, stool consistency or the presence of fibrin, scored each between 0 and 3. The cumulative score ranged from 0 (no signs of inflammation) to 15 (signs of severe inflammation)^21.
Mice were treated with 1% (wt/vol) DSS for 6 days, followed by administration of either arginine 1% (wt/vol) solution (Sigma-Aldrich, St. Louis, Mo., catalogue number A8094) in drinking water, citrulline 1% (wt/vol) (L-citrulline, Chem-Impex International), NaNO2 100 mg (Sigma-Aldrich, St. Louis, Mo., catalogue number S2252), or water as control for additional 6 days.
Fisetin was given by intraperitoneal (i.p.) injection (1 mg/animal) in 30 μL of DMSO twice weekly. The control group was injected with 30 μL of DMSO twice weekly. Each group consisted of ten, 8-weeks old, male mice. Experiments were repeated three times.
Histopathology. On the day of sacrifice, colons were removed and their length was measured. Colon was fixed in 2.5% PFA solution overnight at 4° C., then embedded in paraffin, sectioned and stained with H&E. Tissues were examined in a blinded manner by a pathologist and scored on a 0-4 scale based on the parameters of inflammation severity^20.

Assay [3] deals with As1. The experiment in a line: Immunohistochemistry staining of distal colon sections for As1. The settings on record: after colitis induction, vs control mice with colitis, FIG. 3E, 4A. On the procedure:
Four micrometer paraffin embedded tissue sections were deparaffinized and rehydrated. Endogenous peroxidase was blocked with three percent H2O2 in methanol. Sections undergoing for ALS staining were incubated in cold acetone at −20° C. for 7 minutes. For F4/80 and MAC-2 staining, the present inventors performed antigen retrieval in Tris-EDTA pH 9 and 10 mM citric acid pH 6, for 10 minutes, respectively, using a low boiling program in the microwave to break protein cross-links and unmask antigens. After pre-incubation with 20% normal horse serum and 0.2% Triton X-100 for 1 hour at RT (root temperature), sections were incubated with the primary antibodies as follow; ASL (1:100, Abcam, ab97370, CA, USA); F4/80 (1:50, Serotec, Kidllington, UK); Mac-2 (1:400, Cedarlane, N.C., USA). For fluorescent double-staining of ASL and CD11c the mouse anti ASL (1:50 Santa Cruz Biotechnology, Inc. sc-166787, TX, USA) and rabbit anti CD11c (1:50, ab52632) were used. All antibodies were diluted in PBS containing 2% normal horse serum and 0.2% Triton. Sections were incubated overnight at RT followed by 48 hours at 4° C. Sections were washed three times in PBS and incubated with secondary biotinylated IgG at RT (room temperature) for 1.5 hour, washed three times in PBS and incubated with avidin-biotin Complex (Elite-ABC kit, Vector Lab, CA, USA) at RT for additional 90 minutes followed by DAB (Sigma) reaction. For the fluorescent staining the CY2 conjugated anti mouse and CY3 conjugated streptavidin (1:100 and 1:200 respectively, Jackson ImmunoResearch, West Grove, Pa.) were used.

Turning to `O=c1c(O)c(-c2ccc(O)c(O)c2)oc2cc(O)ccc12` [fisetin, 3,7, 3′, 4′-tetrahydroxyflavone], in assay [1], the As1 levels entry is “decrease”, the NO levels entry is given as “decrease” and the iNOS levels entry was “decrease”. Further, in assay [2] (1% DSS 6 days, then fisetin 1 mg IP twice, citrulline 1% in drinking water or both vs DMSO control, FIG. 4B), the weight loss entry is recorded as “significant weight loss is documented in the control group compared to the treated mice”. In addition, the “colitis severity in all parameters” value in assay [2] (fisetin vs control, FIG. 4A-E) is recorded as “improved colitis severity in all parameters”. Also, in assay [2] (fisetin, citrulline or both vs DMSO control, FIG. 4D), the colon length entry is listed as “significant longer”. For the same molecule, the histological score result in assay [2] (fisetin, citrulline or both vs DMSO control, FIG. 4E) is “significant reduction”. Moreover, the “As1 expression in distal colon sections (intestine, enterocytes)” value in assay [3] is “up regulation”. Also, the “As1 expression in distal colon sections (intestine, enterocytes)” value in assay [3] (listed as fesitin) was “upregulated”.
